From PMC10537604, “Development and Assessment of 1,5–Diarylpyrazole/Oxime Hybrids Targeting EGFR and JNK–2 as Antiproliferative Agents: A Comprehensive Study through Synthesis, Molecular Docking, and Evaluation” (Molecules, 2023)
Like-named read-outs stand apart in the source and are kept apart here.

Experiments:
[1] = system: human colorectal adenocarcinoma cell line DLD-1; assay: WST-8 antiproliferative assay, DLD-1; assay type: cell-based
[2] = system: human myelogenous leukemia cell line K562; assay: WST-8 antiproliferative assay, K562; assay type: cell-based; conditions: Homo sapiens
[3] = system: human hepatocellular carcinoma cell line HepG2; assay: WST-8 antiproliferative assay, HepG2; assay type: cell-based
[4] = system: human pancreatic cancer cell line SUIT-2; assay: WST-8 antiproliferative assay, SUIT-2; assay type: cell-based
[5] = system: human hepatocellular carcinoma cell line HepG2; assay: WST-8 antiproliferative assay, HepG2; assay type: cell-based; conditions: WST-8 assay, six concentrations 1-100 µM
[6] = system: human pancreatic cancer cell line SUIT-2; assay: WST-8 antiproliferative assay, SUIT-2; assay type: cell-based; conditions: WST-8 assay, six concentrations 1-100 µM
[7] = system: human colorectal adenocarcinoma cell line DLD-1; assay: WST-8 antiproliferative assay, DLD-1; assay type: cell-based; conditions: WST-8 assay, six concentrations 1-100 µM
JNK-2 = target: T1, JNK-2 (Homo sapiens, UniProt P45984); assay: JNK-2 inhibitory assay (SimpleStep ELISA, pT183/Y185); assay type: biochemical; conditions: read-out: IC50 (µM) against JNK-2
T1 construct: HEK293 only for the control lysate
T1 sequence (P45984 whole entry): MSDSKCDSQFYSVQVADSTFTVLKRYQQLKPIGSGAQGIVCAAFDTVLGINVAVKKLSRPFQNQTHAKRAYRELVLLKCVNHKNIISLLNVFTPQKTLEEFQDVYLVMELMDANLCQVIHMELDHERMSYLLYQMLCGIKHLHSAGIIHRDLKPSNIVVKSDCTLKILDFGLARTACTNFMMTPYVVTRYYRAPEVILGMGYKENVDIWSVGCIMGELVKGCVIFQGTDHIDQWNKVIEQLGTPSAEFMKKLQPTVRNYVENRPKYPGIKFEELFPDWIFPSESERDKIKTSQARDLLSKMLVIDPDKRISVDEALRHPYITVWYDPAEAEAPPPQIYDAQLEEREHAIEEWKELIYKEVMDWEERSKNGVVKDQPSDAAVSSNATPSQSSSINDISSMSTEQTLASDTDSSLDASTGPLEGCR
Description: The SimpleStep ELISA employs an affinity tag-labelled capture antibody and a reporter attached detector antibody to immunocapture the sample analyte in solution. This complete complex (capture antibody/analyte/detector antibody) is then immobilized via immunoaffinity of an anti-tag antibody coating the well. To perform the assay, samples or controls are added to the wells, followed by the antibody cocktail. After incubation, the wells are washed to remove unbound material. TMB substrate is added and during incubation is catalyzed by HRP, generating blue coloration. This reaction is then stopped by the addition of stop solution, completing any color change from blue to yellow. The signal is generated proportionally to the amount of bound analyte and the intensity is measured at 450 nm. Optionally, instead of the endpoint reading, the development of TMB can be recorded kinetically at 600 nm. An antibody cocktail can be prepared by combining an appropriate volume of the capture and detector antibodies immediately prior to assay. To make 3 mL of the antibody cocktail, combine 1.5 mL of capture antibody with 1.5 mL of detector antibody. Mix thoroughly and gently. Control lysate can be prepared from HEK293 cells, cultured in 10% FBS containing medium, then treated with 1 μg/mL anisomycin. After preparing all the reagents, samples, and control as instructed and following the previously published procedures [74, 75], add 50 µL of sample or control to the well, add 50 µL of the antibody cocktail, then incubate at room temperature for 1 h on a plate shaker set to 400 rpm, aspirate and wash each well three times with 350 μL with wash buffer, add 100 μL TMB substrate to each well and incubate for 15 min, then add 100 μL stop solution and measure the absorbance at 450 nm.

[8] = DLD-1, 100 µM, WST-8 assay, read-out: Growth Inhibition (GI%) DLD-1
[9] = K562, 100 µM, WST-8 assay, read-out: Growth Inhibition (GI%) K562
[10] = K562, WST-8 assay, six concentrations 1-100 µM, read-out: IC50 K562
[11] = HepG2, 100 µM, WST-8 assay, read-out: Growth Inhibition (GI%) HepG2
[12] = SUIT-2, 100 µM, WST-8 assay, read-out: Growth Inhibition (GI%) SUIT-2

SMILES	inhibition at 100 µM [1, 8]	inhibition at 100 µM [2, 9]	IC50 [2, 10]	inhibition at 100 µM [3, 11]	inhibition at 100 µM [4, 12]	IC50 [5]	IC50 [6]	IC50 [7]	inhibition at 100 µM ([1]; DLD-1, read-out: Growth Inhibition (GI%) DLD-1)	IC50 ([1]; DLD-1, read-out: IC50 DLD-1)	IC50 (JNK-2)	inhibition at 100 µM ([2]; K562, read-out: Growth Inhibition (GI%) K562)	IC50 ([2]; K562, read-out: IC50 K562, WST-8 assay, six concentrations 1-100 µM)	inhibition at 100 µM ([3]; HepG2, read-out: Growth Inhibition (GI%) HepG2)	IC50 ([3]; HepG2, read-out: IC50 HepG2)	inhibition at 100 µM ([4]; SUIT-2, read-out: Growth Inhibition (GI%) SUIT-2)
COc1cc(/C(C)=N/O)ccc1OC(=O)c1cc(-c2ccccc2)n(-c2ccccc2)n1 [Compound 8a, (E)–4–(1–(Hydroxyimino)ethyl)2–methoxyphenyl 1,5–diphenyl–1H–pyrazole–3–carboxylate]	25.7%	94%	22 µM	0%	77%											
COc1cc(/C(C)=N/O)ccc1OC(=O)c1cc(-c2ccc(C)cc2)n(-c2ccccc2)n1 [Compound 8b, (E)–4–(1–(Hydroxyimino)ethyl)–2–methoxyphenyl 1–phenyl–5–p–tolyl–1H–pyrazole–3–carboxylate]	92%	99%	13 µM	107%	102%	35.7 µM	27 µM	10 µM								
COc1cc(/C(C)=N/O)ccc1OC(=O)c1cc(-c2ccc(Cl)cc2)n(-c2ccccc2)n1 [Compound 8d, (E)–4–(1–(Hydroxyimino)ethyl)–2–methoxyphenyl 5–(4–chlorophenyl)–1–phenyl–1H–pyrazole–3–carboxylate]									72%	14.4 µM	49 µM	95%	9 µM	98%	23.3 µM	77%
COc1ccc(-c2cc(C(=O)Oc3ccc(/C(C)=N/O)cc3OC)nn2-c2ccccc2)cc1OC [Compound 8e, (E)–4–(1–(Hydroxyimino)ethyl)–2–methoxyphenyl 5–(3,4–dimethoxy phenyl)–1–phenyl–1H–pyrazole–3–carboxylate]	29.2%	93%	20 µM	99%	83%	4.7 µM										
COc1cc(/C(C)=N/O)ccc1OC(=O)c1cc(-c2ccccc2)n(-c2ccc(S(N)(=O)=O)cc2)n1 [Compound 8f, (E)–4–(1–(Hydroxyimino)ethyl)–2–methoxyphenyl 5–phenyl–1–(4–sulfamoyl phenyl)–1H–pyrazole–3–carboxylate]	72.9%	76%	15.6 µM	80%	95%	22.3 µM										
COc1cc(/C(C)=N/O)ccc1OC(=O)c1cc(-c2ccc(C)cc2)n(-c2ccc(S(N)(=O)=O)cc2)n1 [Compound 8g, (E)–4–(1–(Hydroxyimino)ethyl)–2–methoxyphenyl 1–(4–sulfamoylphenyl)–5–p–tolyl–1H–pyrazole–3–carboxylate]	85.8%	87%	7.6 µM	93%	96%	12.3 µM	19 µM	32.3 µM			> 200 µM					
COc1ccc(-c2cc(C(=O)Oc3ccc(/C(C)=N/O)cc3OC)nn2-c2ccc(S(N)(=O)=O)cc2)cc1 [Compound 8h, (E)–4–(1–(Hydroxyimino)ethyl)–2–methoxyphenyl 5–(4–methoxyphenyl)–1–(4–sulfamoyl phenyl)–1H–pyrazole–3–carboxylate]	52.3%	78%	21 µM	63%	73%		26 µM									
COc1cc(/C(C)=N/O)ccc1OC(=O)c1cc(-c2ccc(Cl)cc2)n(-c2ccc(S(N)(=O)=O)cc2)n1 [Compound 8i, (E)–4–(1–(Hydroxyimino)ethyl)–2–methoxyphenyl 5–(4–chlorophenyl)–1–(4–sulfamoyl phenyl)–1H–pyrazole–3–carboxylate]	34%	97%	71 µM	90%	98%		62 µM				1 µM					
C/C(=N\O)c1ccc(NC(=O)c2cc(-c3ccccc3)n(-c3ccc(S(N)(=O)=O)cc3)n2)cc1 [Compound 10a, (E)–N–(4–(1–(Hydroxyimino)ethyl)phenyl)–5–phenyl–1–(4–sulfamoylphenyl)–1H–pyrazole–3–carboxamide]	99%	84%	16 µM	72%	88%			26 µM								
COc1ccc(-c2cc(C(=O)Nc3ccc(/C(C)=N/O)cc3)nn2-c2ccc(S(N)(=O)=O)cc2)cc1 [Compound 10b, (E)–N–(4–(1–(Hydroxyimino)ethyl)phenyl)–5–(4–methoxyphenyl)–1–(4–sulfamoylphenyl)–1H–pyrazole–3–carboxamide]	72.5%	84%		2%	50%			36 µM								
COc1ccc(-c2cc(C(=O)Nc3ccc(/C(C)=N/O)cc3)nn2-c2ccc(S(N)(=O)=O)cc2)cc1OC [Compound 10c, (E)–5–(3,4–Dimethoxyphenyl)–N–(4–(1–(hydroxyimino)ethyl)phenyl)–1–(4–sulfamoyl phenyl)–1H–pyrazole–3–carboxamide]	92.4%	87%	29 µM	52%	103%		13 µM									
